Measured values published in PubChem BioAssay (NCI).
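Dose response: 5 concentrations. Exposure: 48 h. Format: 96-well plates. Endpoint: linear interpolation; highest concentration if not reached. GI50 is the concentration that inhibits growth by half. TGI denotes the concentration required for complete inhibition of growth.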

Tests used:
Assay in all cases: NCI-60 cell line screen, 48 h
SN12C renal = system: SN12C renal
COLO 205 colon = system: COLO 205 colon
NCI-H522 lung = system: NCI-H522 lung
BT-549 breast = system: BT-549 breast
MDA-MB-231 breast = system: MDA-MB-231 breast
PC-3 prostate = system: PC-3 prostate
786-0 renal = system: 786-0 renal
NCI-H23 lung = system: NCI-H23 lung
SW-620 colon = system: SW-620 colon
HOP-62 NSCLC = system: HOP-62 NSCLC

| SMILES | GI50 (SN12C renal) [µM] | TGI (SN12C renal) [µM] | GI50 (COLO 205 colon) [µM] | TGI (COLO 205 colon) [µM] | GI50 (NCI-H522 lung) [µM] | TGI (NCI-H522 lung) [µM] | GI50 (BT-549 breast) [µM] | TGI (BT-549 breast) [µM] | GI50 (MDA-MB-231 breast) [µM] | TGI (MDA-MB-231 breast) [µM] | GI50 (PC-3 prostate) [µM] | TGI (PC-3 prostate) [µM] | GI50 (786-0 renal) [µM] | TGI (786-0 renal) [µM] | GI50 (NCI-H23 lung) [µM] | TGI (NCI-H23 lung) [µM] | GI50 (SW-620 colon) [µM] | TGI (SW-620 colon) [µM] | TGI (HOP-62 NSCLC) [µM] | GI50 (HOP-62 NSCLC) [µM] |
| --- | --- | --- | --- | --- | --- | --- | --- | --- | --- | --- | --- | --- | --- | --- | --- | --- | --- | --- | --- | --- |
| CO[C@@]12C[C@H]3[C@@H]([C@@H](O)[C@@H](OC(=O)/C=C/c4ccccc4)[C@@]4(O)C(C)(C)CCC[C@]34C)[C@@H](C)C1=CC(=O)O2 | 4.84 | 19.5 | 5.42 | 54.2 | 35.1 | > 100 | 11.3 | 27.9 | 0.585 | 4.6 | 5.13 | 29.2 | 24.8 | > 100 | 13.5 | 42.2 | 12.2 | 31.5 |  |  |
| CCCCCCCCCCCC(O)=C1C(=O)CC(O)CC1=O (stereo unspecified) |  | > 100 |  | > 100 |  | > 100 |  |  |  |  |  |  |  | > 100 |  | > 100 |  | > 100 | > 100 |  |
| c1ccc2cc(Cn3c[n+](Cc4ccc5ccccc5c4)c4ccccc43)ccc2c1 |  |  |  |  |  |  |  |  | 1.1 | 2.47 | 1.1 | 2.43 | 1.52 | 3.09 |  |  | 1.27 | 2.75 |  |  |
| CC(=O)[C-](C(C)=O)c1ccccc1.CC(=O)[C-](C(C)=O)c1ccccc1.CC[O-].CC[O-].[Ti+4] | > 100 | > 100 | > 100 | > 100 | > 100 | > 100 |  |  |  |  |  |  | > 100 | > 100 | > 100 | > 100 | > 100 | > 100 | > 100 | > 100 |
| CCCCCCCCCCCC(=O)c1c(O)cccc1O |  | 34.7 |  | 29 |  | 33.2 |  |  |  |  |  |  |  | 32.8 |  | 32.2 |  | 33.5 | 31.5 |  |
| COc1ccc(C(=O)C(C(=O)C(=O)Nc2nccs2)c2ccc(OC)cc2)cc1 (stereo unspecified) |  | > 100 |  | > 100 |  | > 100 |  |  |  |  |  |  |  | > 100 |  | > 100 |  | > 100 |  |  |
| COc1ccc(/C=C/C(=O)c2cc3c(N)c(C(=O)Nc4ccccc4C)sc3nc2C)cc1 | 0.833 | > 50 |  |  | 0.194 | > 50 | 0.568 | > 50 | 1.18 | > 38.5 | 0.285 | > 50 | 0.489 | > 50 | 0.969 | > 50 | 0.83 | > 50 | > 50 | 0.779 |
| COc1cc(Cl)c2c3c(c(C(=O)c4ccccc4)oc13)CCC2 |  | > 100 |  | > 100 |  |  |  |  |  |  |  |  |  | > 100 |  | > 100 |  | > 100 | > 100 |  |
| CN1CCN(c2ccc(NC3=C(Cl)C(=O)c4ncccc4C3=O)cc2C#N)CC1 | 1.55 | 3.25 | 2.06 | 4.51 |  |  | 2.25 | 5.95 | 1.57 | 4.17 | 2.29 | 9.34 | 1.72 | 3.23 | 2.15 | 6.22 | 1.49 | 3.62 | 34.7 | 11.8 |
| CCCCCC(O)(CCCCC)CCCCCCCCC1=C(O)c2[nH]c(=O)ccc2C(=O)C1=O |  | 21 |  | 31.9 |  | 20.8 |  |  |  |  |  |  |  | 20.8 |  | 7.73 |  | 20.6 | 24.9 |  |
| BrC1=CC=C2NCCCCCCN=C3C=CC(Br)=CC=C3NCCCCCCN=C2C=C1 |  | > 25.5 |  |  |  | > 25.5 |  |  |  |  |  |  |  | > 25.5 |  | > 25.5 |  | > 25.5 | > 25.5 |  |
| [C-]#[N+][C@]12C(=O)[C@H](CCC1(C)C)C(C)(C)[C@H]1C(=O)N(C)c3cccc2c31 | 41.9 | > 100 | 5.06 | > 100 |  |  | 46.2 | > 100 | > 100 | > 100 | 3.27 | > 100 | > 100 | > 100 |  |  | 18.6 | > 100 | > 100 | 9.6 |
| c1cc(-c2cn[nH]c2)cc(-c2cn[nH]c2)c1 |  | > 100 |  | > 100 |  | > 100 |  |  |  |  |  |  |  | > 100 |  | > 100 |  | > 100 | > 100 |  |
| O=C(NNS(=O)(=O)c1ccc(F)cc1)c1cccnc1Nc1ccc(Cl)cc1Cl | 17.6 | 31.7 | 16.4 | 50.8 |  |  | 36 | > 100 | 28.8 | > 100 | 14.8 | 32.1 | 23 | 53.6 | 36.5 | > 100 | 29.1 | > 100 | 84.5 | 30.9 |
| Cc1nc(Nc2ccccc2)sc1C(=O)NNc1ccc([N+](=O)[O-])cc1[N+](=O)[O-] |  | > 100 |  | > 100 |  | 49.3 |  |  |  |  |  |  |  | > 100 |  | 44.2 |  | > 100 | > 100 |  |
| COC(=O)/C(=C/c1ccc(OC)cc1)NC(=O)c1ccccc1 |  | > 100 |  |  |  |  |  |  |  |  |  |  |  | > 100 |  | > 100 |  | > 100 |  |  |
| N[C@@H]1CCCC[C@@H]1N.O=C([O-])CN(CP(=O)([O-])[O-])CP(=O)([O-])[O-].[Pt+2] | > 100 | > 100 | 50.1 | > 100 | > 100 | > 100 |  |  |  |  |  |  | > 100 | > 100 | > 100 | > 100 | > 100 | > 100 | > 100 | > 100 |
| N#CC(C(=N/NC(N)=S)/C(=N/NC(N)=S)C(C#N)c1ccc(Cl)cc1)c1ccc(Cl)cc1 (stereo unspecified) |  | > 100 |  | > 100 |  | > 100 |  |  |  |  |  |  |  | > 100 |  | > 100 |  | > 100 | > 100 |  |
| Cc1cc(N(CCC#N)CCC#N)ccc1N=Nc1cccc(Cl)c1 |  | > 100 |  | > 100 |  | > 100 |  |  |  |  |  |  |  | > 100 |  | > 100 |  | > 100 | > 100 |  |
| Cc1cccc(C)c1NC(=O)CCC(=O)NC(N)=S |  | > 100 |  | > 100 |  | > 100 |  |  |  |  |  |  |  | > 100 |  | > 100 |  | > 100 | > 100 |  |
| C1=C(c2ccccc2)SC=C(c2ccccc2)S1 |  | > 100 |  | > 100 |  |  |  | 84.8 |  | > 100 |  | > 100 |  | > 100 |  | > 100 |  | > 100 | > 100 |  |
